Results reported in ChEMBL document CHEMBL5150000, “Insights on Dengue and Zika NS5 RNA-dependent RNA polymerase (RdRp) inhibitors” (Eur J Med Chem, 2021).
pEC50, pIC50, pKd: −log10 of the molar value. Blank lines part the entries; values can stand above or below the compound they belong to.

What was measured:
Nonstructural protein 5 [1] = biological target: T1, Nonstructural protein 5 (Dengue virus, UniProt V5TFZ2); test: Binding affinity to full length His-tagged DENV-2 NS5 assessed as dissociation constant; parameters: species or system dengue virus type 2
Nonstructural protein 5 [2] = biological target: T1, Nonstructural protein 5; test: Inhibition of full length His-tagged DENV-2 NS5 incubated for 1 hr; parameters: species or system dengue virus type 2
Nonstructural protein 5 [3] = biological target: T1, Nonstructural protein 5; test: Inhibition of DENV-4 NS5; parameters: species or system dengue virus type 4
[4] = Inhibition od DENV-2 RNA-dependent RNA polymerase; parameters: species or system dengue virus type 2
[5] = biological target: T2, DNA polymerase alpha catalytic subunit (Homo sapiens) (UniProt P09884); test: Inhibition of human DNA polymerase alpha at 100 uM incubated for 60 mins by Microbeta counter analysis
T2 sequence (whole entry): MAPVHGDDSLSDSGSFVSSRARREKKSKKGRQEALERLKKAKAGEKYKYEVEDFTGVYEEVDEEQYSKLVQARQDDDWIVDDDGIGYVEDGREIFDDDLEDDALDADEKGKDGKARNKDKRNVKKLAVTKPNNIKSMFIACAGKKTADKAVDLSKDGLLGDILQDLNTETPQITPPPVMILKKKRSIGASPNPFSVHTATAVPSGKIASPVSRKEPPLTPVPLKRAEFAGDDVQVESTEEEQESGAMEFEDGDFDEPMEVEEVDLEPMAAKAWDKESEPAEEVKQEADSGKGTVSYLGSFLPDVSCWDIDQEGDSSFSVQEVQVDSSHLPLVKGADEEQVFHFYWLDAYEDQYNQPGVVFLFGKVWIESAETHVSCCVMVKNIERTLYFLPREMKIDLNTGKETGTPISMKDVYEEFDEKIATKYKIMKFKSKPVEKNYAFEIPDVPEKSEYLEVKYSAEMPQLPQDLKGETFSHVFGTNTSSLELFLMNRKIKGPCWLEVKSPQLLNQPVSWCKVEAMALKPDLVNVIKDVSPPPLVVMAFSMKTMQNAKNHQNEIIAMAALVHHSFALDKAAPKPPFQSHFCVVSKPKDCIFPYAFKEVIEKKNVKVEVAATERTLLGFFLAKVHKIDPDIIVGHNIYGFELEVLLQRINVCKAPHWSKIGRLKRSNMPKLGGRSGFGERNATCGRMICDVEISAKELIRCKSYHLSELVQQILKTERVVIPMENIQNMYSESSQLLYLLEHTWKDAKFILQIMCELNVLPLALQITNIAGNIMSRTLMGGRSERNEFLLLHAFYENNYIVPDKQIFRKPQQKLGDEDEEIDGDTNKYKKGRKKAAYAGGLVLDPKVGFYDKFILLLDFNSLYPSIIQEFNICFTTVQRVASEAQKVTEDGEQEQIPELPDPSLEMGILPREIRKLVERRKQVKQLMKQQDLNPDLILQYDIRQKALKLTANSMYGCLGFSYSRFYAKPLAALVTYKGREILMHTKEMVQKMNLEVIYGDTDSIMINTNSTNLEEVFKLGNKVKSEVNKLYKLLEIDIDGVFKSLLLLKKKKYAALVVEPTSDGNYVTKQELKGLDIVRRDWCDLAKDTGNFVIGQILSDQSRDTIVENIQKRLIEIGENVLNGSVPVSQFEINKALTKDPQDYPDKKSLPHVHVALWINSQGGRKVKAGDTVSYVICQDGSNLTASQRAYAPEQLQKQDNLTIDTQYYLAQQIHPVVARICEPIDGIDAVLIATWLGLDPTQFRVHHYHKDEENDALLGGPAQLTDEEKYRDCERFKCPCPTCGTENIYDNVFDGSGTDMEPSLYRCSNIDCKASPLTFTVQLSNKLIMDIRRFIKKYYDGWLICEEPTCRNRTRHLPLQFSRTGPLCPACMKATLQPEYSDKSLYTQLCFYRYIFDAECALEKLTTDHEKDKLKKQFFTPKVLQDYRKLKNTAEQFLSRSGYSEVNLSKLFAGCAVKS

Nonstructural protein 5 [6] = biological target: T1, Nonstructural protein 5; test: Inhibition of DENV-2 NS5; parameters: species or system dengue virus type 2
Hepacivirus hominis = test: Inhibition of C-terminal his6-tagged HCV NS5/RNA-dependent RNA polymerase expressed in Escherichia coli at 100 uM incubated for 2 hrs by Microbeta counter analysis
Zika virus [7] = test: Antiviral activity against Zika virus infected in African green monkey Vero cells assessed as reduction in viral replication incubated for 24 hrs; format: functional, organism-based
dengue virus type 2 = test: Antiviral activity against DENV-2 RNA-dependent RNA polymerase infected in human Huh-7 cells assessed as reduction in viral replication by RT-PCR analysis; format: functional, organism-based
[8] = Cytotoxicity against African green monkey Vero cells; format: toxicity, cell-based; conditions: chlorocebus sabaeus
Zika virus [9] = test: Antiviral activity against Zika virus NS5/RNA-dependent RNA polymerase; format: functional, organism-based
Dengue virus [10] = test: Antiviral activity against DENV NS5/RNA-dependent RNA polymerase; format: functional, organism-based
Dengue virus [11] = test: Inhibition of DENV RNA-dependent RNA polymerase relative to control; conditions: concentration not given here
[12] = Inhibition of DENV RNA-dependent RNA polymerase activity; parameters: species or system Dengue virus
NS5 (Zika virus) = NS5 (Zika virus) (UniProt A0A143MHK7); test: Inhibition of Zika virus RNA-dependent RNA polymerase relative to control; conditions: concentration not given here
[13] = Selectivity index, ratio of CC50 for cytotoxicity against African green monkey Vero cells to EC50 for antiviral activity against Zika virus RNA-dependent RNA polymerase infected in African green monkey Vero cells; format: toxicity, cell-based; conditions: read-out: Ratio CC50/EC50
Zika virus [14] = test: Antiviral activity against Zika virus RNA-dependent RNA polymerase infected in African green monkey Vero cells; format: functional, organism-based
[15] = Cytotoxicity against African green monkey Vero cells incubated for 4 hrs by Cell-titer glo assay; format: toxicity, cell-based; conditions: chlorocebus sabaeus
[16] = biological target: Nonstructural protein 5 (Dengue virus) (UniProt V5TFZ2); test: Binding affinity to DENV-3 NS5 assessed as gibbs free energy change; conditions: dengue virus type 3
dengue virus type 4 [17] = test: Binding affinity to DENV-4 RNA-dependent RNA polymerase assessed as change in enthalpy by ITC analysis
[18] = Binding affinity to DENV-3 RNA-dependent RNA polymerase assessed as dissociation constant incubated for 40 sec by surface plasmon resonance analysis; parameters: species or system dengue virus type 3
[19] = Inhibition of DENV-3 RNA-dependent RNA polymerase; parameters: species or system dengue virus type 3
[20] = Cytotoxicity against hamster BHK-21 cells; format: toxicity, cell-based, Mesocricetus auratus
[21] = Inhibition of DENV RNA-dependent RNA polymerase in hamster BHK-21 cells; format: cell-based, Dengue virus
dengue virus type 4 [22] = test: Antiviral activity against DENV-4 infected in African green monkey Vero E6 cells; format: functional, organism-based; conditions: Vero C1008
dengue virus type 1 = test: Antiviral activity against DENV-1 infected in African green monkey Vero E6 cells; format: functional, organism-based; conditions: Vero C1008
dengue virus type 3 = test: Antiviral activity against DENV-3 infected in African green monkey Vero E6 cells; format: functional, organism-based; conditions: Vero C1008
Zika virus [23] = test: Antiviral activity against Zika virus infected in African green monkey Vero E6 cells; format: functional, organism-based; conditions: Vero C1008
Dengue virus [24] = test: Antiviral activity against DENV RNA-dependent RNA polymerase infected in human PBMC; format: functional, organism-based
Nonstructural protein 5 [25] = biological target: T1, Nonstructural protein 5; test: Inhibition of DENV NS5/RNA-dependent RNA polymerase
[26] = Inhibition of DENV RNA-dependent RNA polymerase; parameters: species or system dengue virus type 1

Sequence of NS5 (Zika virus) (A0A143MHK7 as listed by the source): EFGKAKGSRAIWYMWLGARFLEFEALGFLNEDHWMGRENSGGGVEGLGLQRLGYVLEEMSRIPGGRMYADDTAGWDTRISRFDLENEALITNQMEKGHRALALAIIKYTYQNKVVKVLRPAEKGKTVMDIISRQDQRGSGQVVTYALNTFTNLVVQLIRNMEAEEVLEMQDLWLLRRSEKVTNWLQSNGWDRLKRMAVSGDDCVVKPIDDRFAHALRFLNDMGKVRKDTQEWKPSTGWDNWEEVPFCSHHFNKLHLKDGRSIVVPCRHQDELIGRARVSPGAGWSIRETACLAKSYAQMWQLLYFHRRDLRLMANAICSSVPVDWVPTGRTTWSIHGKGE

pIC50 (Dengue virus [10]): 5.60
SMILES: O=C(O)/C=C/C#CCCCCCCCC(=O)O
CC50 [8]: > 420 µM

pEC50 (Zika virus [14]): 7.03
SMILES: O=C(NC(=S)Nc1ccc(N2CCN(C(=O)c3cccs3)CC2)cc1)c1sc2ccccc2c1Cl
selectivity ratio [13]: 206
CC50 at 4 h [15]: 19.4 µM

deltaG [16]: -4.89 kcal/mol
SMILES: O=C(Nc1nc(-c2cccc3ccccc23)n[nH]1)C1=CNc2ccccc2N1

pIC50 (Nonstructural protein 5 [3]): 3.85
deltaH (dengue virus type 4 [17]): -5.96 kcal/mol
pKd [18]: 4.54
pIC50 [19]: 6.84
SMILES: COc1ccc(CC(=O)O)cc1-c1cccs1

pIC50 (Nonstructural protein 5 [2]): 5.64
SMILES: O=C1N/C(=N\c2nnc(-c3cccc(F)c3)s2)S/C1=C\c1cccc(F)c1

pIC50 (Dengue virus [10]): 5.57
SMILES: CCCC/C=C/C#CCCCCCCCC(=O)O
CC50 [8]: 30 µM

pEC50 (dengue virus type 4 [22]): 5.54
pEC50 (dengue virus type 1): 5.29
pEC50 (dengue virus type 3): 5.46
pEC50 (Zika virus [23]): 4.97
SMILES: COc1ccc(-c2cc(C(=O)N[C@@H](Cc3ccc(O)cc3)C(=O)O)c3sc4ccc(OC5CCCCC5)cc4n3c2=O)cc1F

pIC50 (Nonstructural protein 5 [25]): 6.80
SMILES: COc1cc(O)c2c(=O)cc(-c3ccc(O)cc3)oc2c1-c1cc(-c2cc(=O)c3c(O)cc(O)cc3o2)ccc1O [SOTETSUFLAVONE]

pIC50 [26]: 4.04
SMILES: Nc1cc(C(F)(F)F)ccc1NC(=O)Nc1cccc(S(=O)(=O)Nc2ccc(C(=O)O)cc2)c1

The next lines start with the compound.

SMILES: O=C1N/C(=N\c2nnc(-c3ccccc3Cl)s2)S/C1=C\c1cccc(F)c1
pKd (Nonstructural protein 5 [1]): 5.04
pIC50 (Nonstructural protein 5 [2]): 5.68

SMILES: O=C(O)c1ccccc1NS(=O)(=O)c1cccc(-c2cnn(Cc3ccccc3)c2)c1
pIC50 (Nonstructural protein 5 [3]): 5.28
pIC50 [4]: 6.15
inhibition [5]: 32%
pIC50 (Nonstructural protein 5 [6]): 5.34
inhibition (Hepacivirus hominis): 23%

SMILES: O=C(N[C@@H](Cc1cccc(O)c1)C(=O)O)c1cc(-c2ccccc2)c(=O)n2c1sc1ccc(C3CCCCC3)cc12
pEC50 (Zika virus [7]): 6.10
pEC50 (dengue virus type 2): 5.54

SMILES: O[C@H]1[C@H]2c3cc4c(cc3CN3CCC(=C[C@@H]1O)[C@H]23)OCO4 [LYCORINE]
CC50 [8]: 21 µM
pEC50 (Zika virus [9]): 6.41

SMILES: CCCC/C=C/C#CC#CCCCCCCCC(=O)O [EXOCARPIC ACID]
CC50 [8]: 23 µM
pIC50 (Dengue virus [10]): 5.66

SMILES: C[C@@]1(F)[C@H](O)[C@@H](COP(=O)(O)OP(=O)(O)OP(=O)(O)O)O[C@H]1n1ccc(N)nc1=O [PSI-6130-TP]
inhibition (Dengue virus [11]): 85%
pIC50 [12]: 5.80
inhibition (NS5 (Zika virus)): 67.4%

SMILES: C#Cc1c(C#N)ncn1[C@@H]1S[C@H](CO)[C@@H](O)[C@H]1O
CC50 [20]: > 50 µM
pIC50 [21]: 5.18

SMILES: O=C(N[C@@H](Cc1ccc(O)cc1)C(=O)O)c1cc(-c2ccccc2)c(=O)n2c1sc1ccc(C3CCCCCC3)cc12
pEC50 (Zika virus [7]): 5.80
pEC50 (dengue virus type 2): 5.43

SMILES: O=C(O)CCNC(=O)c1cc(-c2ccccc2)c(=O)n2c1sc1ccc(C3CCCCC3)cc12
pEC50 (Zika virus [7]): 6.00
pEC50 (dengue virus type 2): 5.46

SMILES: C#C[C@]1(O)[C@H](n2ccc(=O)[nH]c2=O)O[C@](F)(CO[P@](=O)(N[C@@H](C)C(=O)OC(C)C)Oc2ccccc2)[C@H]1O
pEC50 (Dengue virus [24]): 6.43
